Assay: In vitro RF-triggered drug release from Fe@MSN nanoparticles
Assay type: physicochemical
Details: for drug release rate of two drugs compared: release from Fe@MSN under the same RF field
Experimental: FIGS. 2(A-E) illustrate in vitro evaluation of radiofrequency (RF)-triggered drug release from Fe@MSN nanoparticles. (A) The release of DOX was triggered from Fe@MSN particles using an RF field at different frequencies (1, 20, 50 and 380 kHz; n=4). […] (C) Effect of elevated temperature on the drug release from Fe@MSN particles with an incubation time of 60 min (n=4; unpaired t-test P<0.0001). (D) Drug release from Fe@MSN at different particle concentration under an RF field at 50 kHz. (E) Drug release from Fe@MSN particles at different depths in the RF source (RF field: 50 kHz).
Further, when the temperature of the Fe@MSN suspension was elevated to 60° C. for 60 min by external heating, negligible drug was released ([…]). These two findings indicate that the triggered release mechanism is not based on hyperthermic effects applications, thereby minimizing the role of Neel relaxation phenomenon in RF-triggered drug release from the Fe@MSN nanoparticles.
Similar drug release rate per nanochain particle was observed from suspensions of dramatically different concentrations of Fe@MSN nanoparticles when subjected to the same RF field.
The RF-triggered drug release is nearly independent of the type of drug molecules.

| SMILES | drug release rate of two drugs compared | RF-triggered drug release rate (RF field, very low Fe@MSN concentration, 1 or 10 kHz) |
| --- | --- | --- |
| CC(=N)NCc1cccc(CN)c1 [1400 W] | almost identical | – |
| COc1cccc2c1C(=O)c1c(O)c3c(c(O)c1C2=O)C[C@@](O)(C(=O)CO)C[C@@H]3O[C@H]1C[C@H](N)[C@H](O)[C@H](C)O1 [DOX, doxorubicin] | almost identical | triggered in a controlled manner |

From patent US11260127B2, “Mesoporous silica nanoparticles for diagnostic and therapeutic applications” (CASE WESTERN RESERVE UNIVERSITY, priority 2017, dated 2022)
